Biological target: T1, spCas9:gRNA complex (Streptococcus pyogenes serotype M1, UniProt Q99ZW2)
T1 construct: purchased New England Biolabs
Test: in vitro DNA cleavage assay (agarose gel)
Format: biochemical
Procedure: The in vitro DNA cleavage assay was carried out as described by (Pawluk, N et al., 2016) with the following modifications. SpyCas9 (New England Biolabs) (5nM) was incubated with candidate compound (50∼500µM) for 15 min at 37°C in Cas9 nuclease buffer (New England Biolabs). Alt-R crRNA:tracrRNA (Integrated DNA Technologies) (6nM) was added later and incubated again for 15min at 37°C. Finally, target dsDNA (1nM) was added and incubated for 10 min at 37°C for the cleavage. The reaction was stopped by adding Proteinase K. The cleaved and un-cleaved fraction of target dsDNA were visualized after separation on a 1% agarose gel.
Control assays were performed in parallel, where the candidate compound was substituted with 5µM AcrIIA2, as positive control; either 5µM GFP protein or no protein (DMSO) as negative control; and phenolic Mannich base inhibitor, ZL006 (Sigma-Aldrich). The AcrIIA2 and GFP proteins were obtained from E. coli cells transformed with the AcrIIA2- and GFP-expression plasmids (see example 1.2 and 1.3).

[1] = biphenyl analogues, 80µM or 200µM, Figure 5
[2] = ACM37 and pyrrolylthiazole analogues, 200µM or 500µM, Figure 4

T1 sequence (Q99ZW2 whole entry, one chain of several): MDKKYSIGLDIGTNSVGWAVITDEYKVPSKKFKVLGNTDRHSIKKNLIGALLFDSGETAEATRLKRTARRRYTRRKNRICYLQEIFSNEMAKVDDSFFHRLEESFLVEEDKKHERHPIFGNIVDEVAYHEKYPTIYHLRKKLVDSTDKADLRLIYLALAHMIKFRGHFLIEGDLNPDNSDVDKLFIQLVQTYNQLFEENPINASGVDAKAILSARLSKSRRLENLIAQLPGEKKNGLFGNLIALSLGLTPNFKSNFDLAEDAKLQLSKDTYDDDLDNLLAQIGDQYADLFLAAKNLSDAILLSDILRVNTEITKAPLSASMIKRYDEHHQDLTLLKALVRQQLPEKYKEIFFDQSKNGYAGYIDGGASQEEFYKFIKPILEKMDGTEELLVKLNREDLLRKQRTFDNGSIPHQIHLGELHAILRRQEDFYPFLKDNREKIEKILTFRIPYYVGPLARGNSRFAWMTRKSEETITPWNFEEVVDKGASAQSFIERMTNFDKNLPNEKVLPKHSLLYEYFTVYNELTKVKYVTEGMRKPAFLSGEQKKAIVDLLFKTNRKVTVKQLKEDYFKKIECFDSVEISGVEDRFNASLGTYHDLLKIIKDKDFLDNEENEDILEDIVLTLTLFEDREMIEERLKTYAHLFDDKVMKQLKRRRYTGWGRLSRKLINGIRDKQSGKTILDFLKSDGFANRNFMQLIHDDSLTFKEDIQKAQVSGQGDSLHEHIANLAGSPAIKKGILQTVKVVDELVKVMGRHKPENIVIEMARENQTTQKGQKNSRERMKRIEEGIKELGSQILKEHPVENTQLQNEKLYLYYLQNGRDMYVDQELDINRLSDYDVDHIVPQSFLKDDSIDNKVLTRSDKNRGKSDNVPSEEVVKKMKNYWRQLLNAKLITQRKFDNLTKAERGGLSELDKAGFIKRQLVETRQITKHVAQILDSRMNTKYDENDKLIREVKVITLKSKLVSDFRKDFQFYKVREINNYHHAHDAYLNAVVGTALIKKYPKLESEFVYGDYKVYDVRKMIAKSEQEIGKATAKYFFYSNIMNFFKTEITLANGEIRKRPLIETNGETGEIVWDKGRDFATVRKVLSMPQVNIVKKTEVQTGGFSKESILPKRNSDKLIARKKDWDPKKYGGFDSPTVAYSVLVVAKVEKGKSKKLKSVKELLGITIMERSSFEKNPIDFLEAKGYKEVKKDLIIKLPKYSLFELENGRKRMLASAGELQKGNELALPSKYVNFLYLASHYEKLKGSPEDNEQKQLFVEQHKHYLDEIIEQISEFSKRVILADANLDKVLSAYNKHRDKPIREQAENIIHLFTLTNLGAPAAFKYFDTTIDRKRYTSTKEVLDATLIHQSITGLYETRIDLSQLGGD

Row | SMILES | inhibitors of spCas9:gRNA mediated target DNA cleavage [1] | inhibitors of spCas9:gRNA mediated target DNA cleavage [2] | other results
1 | CC1CCN(C(=O)c2cccc(-c3ccc(S(=O)(=O)Nc4ccon4)cc3)c2)CC1 [ACM37-A17a, N-(Isoxazol-3-yl)-3'-(4-methylpiperidine-1-carbonyl)-[1,1'-biphenyl]-4-sulfonamide] | inhibitors |  | 
2 | Cc1cc(NS(=O)(=O)c2cc(-c3nc(C)c(C(=O)N4CCCCCC4)s3)n(C)c2C)no1 [ACM37-A10, 5-(5-(Azepane-1-carbonyl)-4-methylthiazol-2-yl)-1,2-dimethyl-N-(5-methylisoxazol-3-yl)-1H-pyrrole-3-sulfonamide] |  | most potent inhibitors | 
3 | Cc1cc(NS(=O)(=O)c2ccc(-c3cccc(C(=O)N4CCC(C)CC4)c3)cc2)no1 [ACM37-A17, N-(5-Methylisoxazol-3-yl)-3'-(4-methylpiperidine-1-carbonyl)-[1,1'-biphenyl]-4-sulfonamide] | inhibitors |  | 
4 | Cc1cc(NS(=O)(=O)c2cc(-c3nc(C)c(C(=O)N4CCCCC4)s3)n(C)c2C)no1 [ACM37-A19, 1,2-Dimethyl-5-(4-methyl-5-(piperidine-1-carbonyl)thiazol-2-yl)-N-(5-methylisoxazol-3-yl)-1H-pyrrole-3-sulfonamide] |  | most potent inhibitors | 
5 | CC1CCN(C(=O)c2cccc(-c3ccccc3)c2)CC1 [ACM37-A17c, [1,1'-Biphenyl]-3-yl(4-methylpiperidin-1-yl)methanone] | inhibitors |  | relative potency as inhibitor of spCas9:gRNA mediated target DNA cleavage (Figure 5, printed order: ACM37-A17c, then ACM37-A17, ACM37-A17p, ACM37-A17a, ACM37-A17n, ACM37-A17f): most potent
6 | Cc1cc(NS(=O)(=O)c2ccc(-c3ccccc3)cc2)no1 [ACM37-A17f, N-(5-Methylisoxazol-3-yl)-[1,1'-biphenyl]-4-sulfonamide] | inhibitors |  | 
7 | Cc1cc(NS(=O)(=O)c2cc(-c3nc(C)c(C(=O)N4CCC(C)CC4)s3)n(C)c2)no1 [ACM37-A13] |  | most potent inhibitors | 
8 | Cc1nc(-c2cc(S(=O)(=O)Nc3ccon3)cn2C)sc1C(=O)N1CCC(C)CC1 [ACM37-A23a, N-(isoxazol-3-yl)-1-methyl-5-(4-methyl-5-(4-methylpiperidine-1-carbonyl)thiazol-2-yl)-1H-pyrrole-3-sulfonamide] |  | most potent inhibitors | 
9 | Cc1cc(NS(=O)(=O)c2cccc(-c3ccccc3)c2)no1 [ACM37-A17p, N-(5-Methylisoxazol-3-yl)-[1,1'-biphenyl]-3-sulfonamide] | inhibitors |  | 
10 | Cc1cc(NS(=O)(=O)c2cc(-c3nc(C)c(C(=O)N4CCC(C)CC4)s3)n(C)c2C)no1 [ACM37, 1,2-Dimethyl-5-(4-methyl-5-(4-methylpiperidine-1-carbonyl)thiazol-2-yl)-N-(5-methylisoxazol-3-yl)-1H-pyrrole-3-sulfonamide] |  | most potent inhibitors | inhibitor of cleavage of a target DNA molecule by the spCas9:gRNA complex (re-screen of the 52 candidate compounds, 50∼500µM, Figure 3): most potent and specific inhibitor
11 | O=S(=O)(Nc1ccon1)c1ccc(-c2ccccc2)cc1 [ACM37-A17n, N-(Isoxazol-3-yl)-[1,1'-biphenyl]-4-sulfonamide] | inhibitors |  | 

Source: patent publication EP3831940A1, “SMALL MOLECULE INHIBITORS OF CRISPR-CAS ASSOCIATED ACTIVITY” (Danmarks Tekniske Universitet, priority 2019, dated 2021)
